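Exposure lasted 48 hours, with cells grown in 96-well plates and compounds tested at five concentrations. TGI marks complete inhibition of growth.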
How the values were obtained:
Assay in all cases: NCI anticancer screen, dose series, 48 h
KM12 colon = test system: KM12 colon
HOP-92 NSCLC = test system: HOP-92 NSCLC
K-562 leukemia = test system: K-562 leukemia
HS 578T breast = test system: HS 578T breast
T-47D breast = test system: T-47D breast
SF-295 CNS = test system: SF-295 CNS
NCI/ADR-RES ovarian = test system: NCI/ADR-RES ovarian
SW-620 colon = test system: SW-620 colon
A498 renal = test system: A498 renal
HCT-15 colon = test system: HCT-15 colon
COLO 205 colon = test system: COLO 205 colon
ACHN renal = test system: ACHN renal
MDA-N = test system: MDA-N
UO-31 renal = test system: UO-31 renal
MCF7 breast = test system: MCF7 breast
OVCAR-4 ovarian = test system: OVCAR-4 ovarian
CAKI-1 renal = test system: CAKI-1 renal
786-0 renal = test system: 786-0 renal
NCI-H460 lung = test system: NCI-H460 lung
DU-145 prostate = test system: DU-145 prostate
CCRF-CEM leukemia = test system: CCRF-CEM leukemia
BT-549 breast = test system: BT-549 breast
HT29 colon = test system: HT29 colon
OVCAR-3 ovarian = test system: OVCAR-3 ovarian
A549 NSCLC = test system: A549 NSCLC
MALME-3M melanoma = test system: MALME-3M melanoma
SK-MEL-2 melanoma = test system: SK-MEL-2 melanoma
SNB-19 CNS = test system: SNB-19 CNS
HCT-116 colon = test system: HCT-116 colon
UACC-257 melanoma = test system: UACC-257 melanoma
HL-60(TB) leukemia = test system: HL-60(TB) leukemia
NCI-H23 lung = test system: NCI-H23 lung
PC-3 prostate = test system: PC-3 prostate
IGROV1 ovarian = test system: IGROV1 ovarian
TK-10 renal = test system: TK-10 renal
MDA-MB-231 breast = test system: MDA-MB-231 breast
RPMI-8226 leukemia = test system: RPMI-8226 leukemia
SK-MEL-28 melanoma = test system: SK-MEL-28 melanoma
NCI-H522 lung = test system: NCI-H522 lung
U251 CNS = test system: U251 CNS
SK-OV-3 ovarian = test system: SK-OV-3 ovarian
NCI-H226 lung = test system: NCI-H226 lung
SNB-75 CNS = test system: SNB-75 CNS
UACC-62 melanoma = test system: UACC-62 melanoma
HOP-62 NSCLC = test system: HOP-62 NSCLC
SF-268 CNS = test system: SF-268 CNS
MDA-MB-435 = test system: MDA-MB-435
SK-MEL-5 melanoma = test system: SK-MEL-5 melanoma
M14 melanoma = test system: M14 melanoma
LOX IMVI melanoma = test system: LOX IMVI melanoma
OVCAR-5 ovarian = test system: OVCAR-5 ovarian
RXF 393 renal = test system: RXF 393 renal
MOLT-4 leukemia = test system: MOLT-4 leukemia
EKVX NSCLC = test system: EKVX NSCLC
HCC-2998 colon = test system: HCC-2998 colon
OVCAR-8 ovarian = test system: OVCAR-8 ovarian
SN12C renal = test system: SN12C renal
SR leukemia = test system: SR leukemia
SF-539 CNS = test system: SF-539 CNS

O=C(O)CCSCc1ccc(I)cc1
TGI (KM12 colon): > 100 µM | TGI (HOP-92 NSCLC): > 100 µM | TGI (K-562 leukemia): > 100 µM | TGI (HS 578T breast): > 100 µM | TGI (T-47D breast): > 100 µM | TGI (SF-295 CNS): > 100 µM | TGI (NCI/ADR-RES ovarian): > 100 µM | TGI (SW-620 colon): > 100 µM | TGI (A498 renal): > 100 µM | TGI (HCT-15 colon): > 100 µM | TGI (COLO 205 colon): > 100 µM | TGI (ACHN renal): > 100 µM | TGI (MDA-N): > 100 µM | TGI (UO-31 renal): > 100 µM | TGI (MCF7 breast): > 100 µM | TGI (OVCAR-4 ovarian): > 100 µM | TGI (CAKI-1 renal): > 100 µM | TGI (786-0 renal): > 100 µM | TGI (NCI-H460 lung): > 100 µM | TGI (DU-145 prostate): > 100 µM | TGI (CCRF-CEM leukemia): > 100 µM | TGI (BT-549 breast): > 100 µM | TGI (HT29 colon): > 100 µM | TGI (OVCAR-3 ovarian): > 100 µM | TGI (A549 NSCLC): > 100 µM | TGI (MALME-3M melanoma): > 100 µM | TGI (SK-MEL-2 melanoma): > 100 µM | TGI (SNB-19 CNS): > 100 µM | TGI (HCT-116 colon): > 100 µM | TGI (UACC-257 melanoma): > 100 µM | TGI (HL-60(TB) leukemia): > 100 µM | TGI (NCI-H23 lung): > 100 µM | TGI (PC-3 prostate): > 100 µM | TGI (IGROV1 ovarian): > 100 µM | TGI (TK-10 renal): > 100 µM | TGI (MDA-MB-231 breast): > 100 µM | TGI (RPMI-8226 leukemia): > 100 µM | TGI (SK-MEL-28 melanoma): > 100 µM | TGI (NCI-H522 lung): > 100 µM | TGI (U251 CNS): > 100 µM | TGI (SK-OV-3 ovarian): > 100 µM | TGI (NCI-H226 lung): > 100 µM | TGI (SNB-75 CNS): > 100 µM | TGI (UACC-62 melanoma): > 100 µM | TGI (HOP-62 NSCLC): > 100 µM | TGI (SF-268 CNS): > 100 µM | TGI (MDA-MB-435): > 100 µM | TGI (SK-MEL-5 melanoma): > 100 µM | TGI (M14 melanoma): > 100 µM | TGI (LOX IMVI melanoma): > 100 µM | TGI (OVCAR-5 ovarian): > 100 µM | TGI (RXF 393 renal): > 100 µM | TGI (MOLT-4 leukemia): > 100 µM | TGI (EKVX NSCLC): > 100 µM | TGI (HCC-2998 colon): > 100 µM | TGI (OVCAR-8 ovarian): > 100 µM | TGI (SN12C renal): > 100 µM

O=C1C(Cl)=C(N2C(=O)CCCC2=O)C(=O)c2ccccc21
TGI (SR leukemia): 57.1 µM | TGI (SF-539 CNS): 38 µM | TGI (KM12 colon): > 100 µM | TGI (HOP-92 NSCLC): 9.29 µM | TGI (K-562 leukemia): 6.54 µM | TGI (HS 578T breast): > 100 µM | TGI (T-47D breast): 95.7 µM | TGI (SF-295 CNS): > 100 µM | TGI (NCI/ADR-RES ovarian): 95.3 µM | TGI (SW-620 colon): 48.3 µM | TGI (A498 renal): 33.4 µM | TGI (HCT-15 colon): 25.6 µM | TGI (COLO 205 colon): 19.1 µM | TGI (ACHN renal): 21 µM | TGI (MDA-N): 31 µM | TGI (UO-31 renal): 23 µM | TGI (MCF7 breast): 52.1 µM | TGI (CAKI-1 renal): 27.2 µM | TGI (786-0 renal): 33 µM | TGI (NCI-H460 lung): 27.8 µM | TGI (DU-145 prostate): 30.2 µM | TGI (CCRF-CEM leukemia): 23.3 µM | TGI (BT-549 breast): 36.2 µM | TGI (HT29 colon): 29.2 µM | TGI (OVCAR-3 ovarian): > 100 µM | TGI (A549 NSCLC): 54.7 µM | TGI (SK-MEL-2 melanoma): 49 µM | TGI (HCT-116 colon): 32 µM | TGI (UACC-257 melanoma): 38.7 µM | TGI (HL-60(TB) leukemia): 4.42 µM | TGI (NCI-H23 lung): 36 µM | TGI (PC-3 prostate): 41.7 µM | TGI (IGROV1 ovarian): 30.1 µM | TGI (TK-10 renal): 31.3 µM | TGI (MDA-MB-231 breast): 50.5 µM | TGI (RPMI-8226 leukemia): 40.9 µM | TGI (SK-MEL-28 melanoma): 33.4 µM | TGI (NCI-H522 lung): 4.53 µM | TGI (U251 CNS): 66.1 µM | TGI (SK-OV-3 ovarian): > 100 µM | TGI (NCI-H226 lung): > 100 µM | TGI (SNB-75 CNS): > 100 µM | TGI (UACC-62 melanoma): 37.4 µM | TGI (HOP-62 NSCLC): > 100 µM | TGI (SF-268 CNS): > 100 µM | TGI (MDA-MB-435): 44.9 µM | TGI (SK-MEL-5 melanoma): 30.2 µM | TGI (M14 melanoma): 37.5 µM | TGI (LOX IMVI melanoma): 42.4 µM | TGI (OVCAR-5 ovarian): 38.1 µM | TGI (RXF 393 renal): 31.9 µM | TGI (MOLT-4 leukemia): 55.6 µM | TGI (EKVX NSCLC): 33.2 µM | TGI (HCC-2998 colon): 31.4 µM | TGI (OVCAR-8 ovarian): 23.9 µM | TGI (SN12C renal): 46.2 µM

— PubChem BioAssay (NCI)
